pEC50, pIC50: −log10 of the molar value. The source made the active and inactive calls. The calls are words filed in the database; no cut-off is given here.
What was measured:
[1] = molecular target: T1, Cholecystokinin receptor type A (Homo sapiens, UniProt P32238); assay: Inhibition of human CCK1 receptor
T1 sequence (P32238 whole entry): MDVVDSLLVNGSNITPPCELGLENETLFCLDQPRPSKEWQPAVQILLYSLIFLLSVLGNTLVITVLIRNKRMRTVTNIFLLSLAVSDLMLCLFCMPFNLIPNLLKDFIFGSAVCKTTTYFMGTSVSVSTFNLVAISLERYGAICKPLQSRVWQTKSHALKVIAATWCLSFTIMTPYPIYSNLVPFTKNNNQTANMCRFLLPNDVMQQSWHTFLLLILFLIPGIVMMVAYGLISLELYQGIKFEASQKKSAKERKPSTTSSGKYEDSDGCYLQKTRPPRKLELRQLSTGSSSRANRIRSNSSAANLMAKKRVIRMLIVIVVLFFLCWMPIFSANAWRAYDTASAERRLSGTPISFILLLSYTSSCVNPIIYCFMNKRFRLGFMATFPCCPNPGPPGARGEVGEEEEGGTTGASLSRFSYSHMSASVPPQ

[2] = molecular target: T2, Gastrin/cholecystokinin type B receptor (Homo sapiens) (UniProt P32239); assay: Agonist activity against human CCK2 receptor; type: functional
T2 sequence (whole entry): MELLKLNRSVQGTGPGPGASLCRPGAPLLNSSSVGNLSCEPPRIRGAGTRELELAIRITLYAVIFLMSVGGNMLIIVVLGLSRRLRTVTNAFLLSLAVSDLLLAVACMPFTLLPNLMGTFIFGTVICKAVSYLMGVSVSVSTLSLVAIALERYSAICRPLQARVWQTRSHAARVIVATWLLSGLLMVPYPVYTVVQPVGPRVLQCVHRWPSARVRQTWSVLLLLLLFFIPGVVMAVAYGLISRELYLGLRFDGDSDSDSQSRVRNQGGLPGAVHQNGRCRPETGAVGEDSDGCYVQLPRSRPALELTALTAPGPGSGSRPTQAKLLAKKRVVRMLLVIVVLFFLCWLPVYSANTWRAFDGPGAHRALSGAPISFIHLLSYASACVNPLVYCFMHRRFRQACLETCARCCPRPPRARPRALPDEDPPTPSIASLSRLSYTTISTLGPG

[3] = molecular target: T3, Cholecystokinin receptor type A (Homo sapiens) (UniProt P32238); assay: Agonist activity against human CCK1 receptor assessed as receptor activation at 10000 nM; type: functional
T3 sequence (whole entry): T1 sequence (P32238 whole entry)

[4] = molecular target: T1, Cholecystokinin receptor type A; assay: Agonist activity against human CCK1 receptor; type: functional
[5] = molecular target: T2, Gastrin/cholecystokinin type B receptor (Homo sapiens); assay: Agonist activity against human CCK2 receptor assessed as receptor activation at 10000 nM; type: functional

Compound: COc1cccc(-n2cc(C(=O)N3CCN(c4cnc5ccccc5c4)CC3)nc2-c2ccc(C)cc2)c1
- pIC50 [1]: 8.89
- Activity [2]: inactive
- Activity [3]: 92%
- pEC50 [4]: 8.96
- Activity [5]: < 20%

Compound: CCOc1cccc(-n2cc(C(=O)N3CCN(c4ccc5ccccc5c4)CC3)nc2-c2cccc(F)c2)c1
- pIC50 [1]: 7.46
- Activity [2]: inactive
- Activity [3]: 106%
- pEC50 [4]: 6.98
- Activity [5]: < 12%

Compound: COc1cccc(-n2cc(C(=O)N3CCN(c4cccc5ccccc45)CC3)nc2-c2ccc(C)cc2)c1
- pIC50 [1]: 6.20
- Activity [2]: inactive
- Activity [3]: 30%
- pEC50 [4]: 5.27
- Activity [5]: < 20%

Compound: CCOc1cccc(-n2cc(C(=O)N3CCN(c4ccc5ccccc5c4)CC3)nc2-c2ccc(C)cc2)c1
- pIC50 [1]: 8.64
- Activity [2]: inactive
- Activity [3]: 93%
- pEC50 [4]: 8.18
- Activity [5]: < 12%

Compound: Cc1ccc(-c2nc(C(=O)N3CCN(c4ccc5ccccc5c4)CC3)cn2-c2cccc(O)c2)cc1
- pIC50 [1]: 7.66
- Activity [2]: inactive
- Activity [3]: 102%
- pEC50 [4]: 7.09
- Activity [5]: < 21%

Compound: CCOc1cccc(-n2cc(C(=O)N3CCN(c4ccc5ccccc5c4)CC3)nc2-c2ccc(Cl)cc2)c1
- pIC50 [1]: 8.25
- Activity [2]: inactive
- Activity [3]: 119%
- pEC50 [4]: 8.26
- Activity [5]: < 12%

Compound: COc1cccc(-n2cc(C(=O)N3CCN(c4ccc5ncccc5c4)CC3)nc2-c2ccc(C)cc2)c1
- pIC50 [1]: 8.07
- Activity [2]: inactive
- Activity [3]: 108%
- pEC50 [4]: 8.03
- Activity [5]: < 20%

Compound: CCOc1cccc(-n2cc(C(=O)N3CCN(c4ccc5ccccc5c4)CC3)nc2-c2ccc(F)cc2)c1
- pIC50 [1]: 8.72
- Activity [2]: inactive
- Activity [3]: 96%
- pEC50 [4]: 8.54
- Activity [5]: < 12%

Compound: CCOc1cccc(-n2cc(C(=O)N3CCN(c4ccc5ccccc5c4)CC3)nc2-c2ccccc2F)c1
- pIC50 [1]: 8.72
- Activity [2]: inactive
- Activity [3]: 110%
- pEC50 [4]: 8.20
- Activity [5]: < 12%

Compound: CCOc1cccc(-n2cc(C(=O)N3CCN(c4ccc5ccccc5c4)CC3)nc2-c2c(F)cccc2F)c1
- pIC50 [1]: 8.72
- Activity [2]: inactive
- Activity [3]: 109%
- pEC50 [4]: 8.36
- Activity [5]: < 12%

Compound: Cc1ccc(-c2nc(C(=O)N3CCN(c4ccc5ccccc5c4)CC3)cn2-c2ccc3c(c2)OCCO3)cc1
- pIC50 [1]: 9.38
- Activity [2]: inactive
- Activity [3]: 89%
- pEC50 [4]: 9.00
- Activity [5]: < 21%

Compound: COc1cccc(-n2cc(C(=O)N3CCN(c4nc5ccccc5[nH]4)CC3)nc2-c2ccc(C)cc2)c1
- pIC50 [1]: 7.77
- Activity [2]: inactive
- Activity [3]: 89%
- pEC50 [4]: 8.04
- Activity [5]: < 20%

Compound: CCOc1cccc(-n2cc(C(=O)N3CCN(c4ccc5ccccc5c4)CC3)nc2-c2ccccc2)c1
- pIC50 [1]: 8.47
- Activity [2]: inactive
- Activity [3]: 100%
- pEC50 [4]: 8.13
- Activity [5]: < 12%

Compound: Cc1ccc(-c2nc(C(=O)N3CCN(c4ccc5ccccc5c4)CC3)cn2-c2cccc(OC(F)(F)F)c2)cc1
- pIC50 [1]: 6.89
- Activity [2]: inactive
- Activity [3]: 66%
- pEC50 [4]: 5.50
- Activity [5]: < 21%

Compound: CCOc1cccc(-n2cc(C(=O)N3CCN(c4ccc5ccccc5c4)CC3)nc2-c2ccc(F)cc2F)c1
- pIC50 [1]: 9.00
- Activity [2]: inactive
- Activity [3]: 103%
- pEC50 [4]: 8.96
- Activity [5]: < 12%

Compound: COc1cccc(-n2cc(C(=O)N3CCN(c4ccc5cnccc5c4)CC3)nc2-c2ccc(C)cc2)c1
- pIC50 [1]: 6.72
- Activity [2]: inactive
- Activity [3]: 86%
- pEC50 [4]: 6.97
- Activity [5]: < 20%

Compound: CCOc1cccc(-n2cc(C(=O)N3CCN(c4ccc5ccccc5c4)CC3)nc2-c2ccc(C)cc2F)c1
- pIC50 [1]: 9.25
- Activity [2]: inactive
- Activity [3]: 116%
- pEC50 [4]: 8.72
- Activity [5]: < 12%

Compound: CCCOc1cccc(-n2cc(C(=O)N3CCN(c4ccc5ccccc5c4)CC3)nc2-c2ccc(C)cc2)c1
- pIC50 [1]: 6.80
- Activity [2]: inactive
- Activity [3]: 89%
- pEC50 [4]: 6.02
- Activity [5]: < 21%

Compound: COc1cccc(-n2cc(C(=O)N3CCN(c4cc5ccccc5cc4C(=O)O)CC3)nc2-c2ccc(C)cc2)c1
- pIC50 [1]: 8.89
- Activity [2]: inactive
- Activity [3]: 92%
- pEC50 [4]: 9.40
- Activity [5]: < 20%

Compound: COc1cccc(-n2cc(C(=O)N3CCN(c4ccc5ccccc5n4)CC3)nc2-c2ccc(C)cc2)c1
- pIC50 [1]: 7.80
- Activity [2]: inactive
- Activity [3]: 89%
- pEC50 [4]: 7.37
- Activity [5]: < 20%

Compound: COc1cccc(-n2cc(C(=O)N3CCN(c4cc(C(=O)O)c5ccccc5c4)CC3)nc2-c2ccc(C)cc2)c1
- pIC50 [1]: 9.85
- Activity [2]: inactive
- Activity [3]: 85%
- pEC50 [4]: 10.11
- Activity [5]: < 20%

Compound: COc1cccc(-n2cc(C(=O)N3CCN(c4cc5ccccc5cn4)CC3)nc2-c2ccc(C)cc2)c1
- pIC50 [1]: 8.72
- Activity [2]: inactive
- Activity [3]: 89%
- pEC50 [4]: 8.08
- Activity [5]: < 20%

Compound: Cc1ccc(-c2nc(C(=O)N3CCN(c4ccc5ccccc5c4)CC3)cn2-c2cccc(OC(C)C)c2)cc1
- pIC50 [1]: 7.52
- Activity [2]: inactive
- Activity [3]: 94%
- pEC50 [4]: 7.28
- Activity [5]: < 21%

Compound: Cc1ccc(-c2nc(C(=O)N3CCN(c4ccc5ccccc5c4)CC3)cn2-c2cccc(OCC(F)(F)F)c2)cc1
- pIC50 [1]: 6.70
- Activity [2]: inactive
- Activity [3]: 95%
- pEC50 [4]: 5.87
- Activity [5]: < 21%

Compound: CCOc1cccc(-n2cc(C(=O)N3CCN(c4ccc5ccccc5c4)CC3)nc2-c2ccc(CC)cc2)c1
- pIC50 [1]: 7.37
- Activity [2]: inactive
- Activity [3]: 83%
- pEC50 [4]: 6.76
- Activity [5]: < 12%

Compound: COc1ccc(-n2cc(C(=O)N3CCN(c4ccc5ccccc5c4)CC3)nc2-c2ccc(C)cc2)cc1
- pIC50 [1]: 8.16
- Activity [2]: inactive
- Activity [3]: 110%
- pEC50 [4]: 7.70
- Activity [5]: < 21%

Compound: Cc1ccc(-c2nc(C(=O)N3CCN(c4ccc5ccccc5c4)CC3)cn2-c2cccc3c2OCCO3)cc1
- pIC50 [1]: 6.85
- Activity [2]: inactive
- Activity [3]: 70%
- pEC50 [4]: 6.33
- Activity [5]: < 21%

Compound: COc1cccc(-n2cc(C(=O)N3CCN(c4ccc(Cl)c(Cl)c4)CC3)nc2-c2ccc(C)cc2)c1
- pIC50 [1]: 8.10
- Activity [2]: inactive
- Activity [3]: 99%
- pEC50 [4]: 7.60
- Activity [5]: < 20%

Compound: CCc1cccc(-n2cc(C(=O)N3CCN(c4ccc5ccccc5c4)CC3)nc2-c2ccc(C)cc2)c1
- pIC50 [1]: 7.37
- Activity [2]: inactive
- Activity [3]: 101%
- pEC50 [4]: 7.19
- Activity [5]: < 21%

Compound: COc1cccc(-c2cc(C(=O)N3CCN(c4cccc(Cl)c4)CC3)nn2-c2ccc(C)cc2)c1
- pIC50 [1]: 7.39
- Activity [3]: 82%
- pEC50 [4]: 6.51
- Activity [5]: 4.4%

Compound: COc1cccc(-n2cc(C(=O)N3CCN(c4ccc5ccccc5c4)CC3)nc2-c2ccc(C)cc2)c1
- pIC50 [1]: 8.60
- Activity [2]: inactive
- Activity [3]: 99%
- pEC50 [4]: 8.02
- Activity [5]: < 21%

Compound: COc1cccc(-n2cc(C(=O)N3CCN(c4cccc(Cl)c4)CC3)nc2-c2ccc(C)cc2)c1
- pIC50 [1]: 7.85
- Activity [2]: inactive
- Activity [3]: 89%
- pEC50 [4]: 7.13
- Activity [5]: < 20%
